Laboratory results published in the NIST ThermoML archive (doi:10.1016/j.jct.2018.11.014).

Conditions: 101.33 kPa, Crystal, Vacuum adiabatic calorimetry

O=C(CO)[C@@H](O)[C@@H](O)[C@H](O)CO [D-(-)-tagatose]
Conditions | molar entropy [J/K/mol]
10 K | 0.24
20 K | 2.37
30 K | 6.67
40 K | 12.43
50 K | 19.05
60 K | 26.17
70 K | 33.58
80 K | 41.15
90 K | 48.83
100 K | 56.57
110 K | 64.33
120 K | 72.1
130 K | 79.86
140 K | 87.6
150 K | 95.33
160 K | 103.03
170 K | 110.71
180 K | 118.38
190 K | 126.03
200 K | 133.66
210 K | 141.29
220 K | 148.91
230 K | 156.53
240 K | 164.14
250 K | 171.76
260 K | 179.37
270 K | 187
280 K | 194.64
290 K | 202.3
298.15 K | 208.54
300 K | 209.96
310 K | 217.63
320 K | 225.31
330 K | 232.99

O=C(CO)[C@@H](O)[C@H](O)[C@H](O)CO [D-fructose]
Conditions | molar entropy [J/K/mol]
10 K | 0.22
20 K | 2.49
30 K | 7.15
40 K | 13.3
50 K | 20.28
60 K | 27.72
70 K | 35.42
80 K | 43.25
90 K | 51.17
100 K | 59.14
110 K | 67.11
120 K | 75.09
130 K | 83.05
140 K | 91
150 K | 98.92
160 K | 106.81
170 K | 114.68
180 K | 122.52
190 K | 130.34
200 K | 138.14
210 K | 145.91
220 K | 153.67
230 K | 161.42
240 K | 169.16
250 K | 176.89
260 K | 184.62
270 K | 192.35
280 K | 200.07
290 K | 207.79
298.15 K | 214.09
300 K | 215.52
310 K | 223.26
320 K | 231.02
330 K | 238.78

O=C(CO)[C@H](O)[C@H](O)[C@H](O)CO [D-psicose]
Conditions | molar entropy [J/K/mol]
10 K | 0.25
20 K | 2.96
30 K | 8.19
40 K | 14.69
50 K | 21.82
60 K | 29.28
70 K | 36.93
80 K | 44.67
90 K | 52.46
100 K | 60.26
110 K | 68.06
120 K | 75.83
130 K | 83.57
140 K | 91.28
150 K | 98.95
160 K | 106.58
170 K | 114.19
180 K | 121.76
190 K | 129.31
200 K | 136.83
210 K | 144.33
220 K | 151.81
230 K | 159.28
240 K | 166.73
250 K | 174.17
260 K | 181.61
270 K | 189.03
280 K | 196.45
290 K | 203.86
298.15 K | 209.9
300 K | 211.27
310 K | 218.67
320 K | 226.07
330 K | 233.48
